Results on 13 compounds are retold here after US5539123A, “Low molecular weight thiocarbamates as inhibitors of elastase, uses and method of synthesis” (University of Kentucky Research Foundation, priority 1994, dated 1996).

For series [1], the target named is T1, Human Leucocyte Elastase (Homo sapiens, UniProt P08246).
T1 construct: Human leucocyte elastase from human sputum was purchased from elastin corporation; purchased elastin corporation; host or cells: human sputum
T1 sequence (P08246 30-247 limits assumed): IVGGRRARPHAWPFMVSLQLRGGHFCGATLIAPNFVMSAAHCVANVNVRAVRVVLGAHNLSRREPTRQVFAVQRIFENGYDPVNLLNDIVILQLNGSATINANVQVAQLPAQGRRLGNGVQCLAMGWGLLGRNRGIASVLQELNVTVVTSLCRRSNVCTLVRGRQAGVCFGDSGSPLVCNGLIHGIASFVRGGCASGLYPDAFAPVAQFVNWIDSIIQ
As to the kind of experiment: Inactivation of Human Leucocyte Elastase (HLE-catalyzed hydrolysis of N-Methoxysuccinyl-L-Ala-L-Ala-L-Pro-L-Val-p-nitroanilide). Conditions: for times more potent than PC1: compared with PC1, kobs/I=3.3×10^4 M^-1 s^-1; for kinact/KI: second order rate constant, pH 7.5, 25° C., read-out: kobs/I. The format is biochemical. The procedure:
Therefore, second order rate constants (kobs /I, M^-1 s^-1), (I=concentration inhibitor molar) shown in Formula 1, were determined by following the inactivation of the enzyme for 2 hours as described in the experimental section. […] The results are plotted as % of relative remaining activity vs time which is the absolute remaining activity in the presence of inhibitor divided by the absolute remaining activity of the free enzyme in absence of inhibitor for the same time interval.
In such a case a semilog plot of the relative remaining activity (A/Ao) vs time would describe a curve approaching the fractional activity (F) at longer times whereas a semilog plot of (A/Ao-F)/(1-F) vs time will be linear with a slope equal to the kobs, the pseudofirst order rate constant (equation 2).
The inactivation of HLE enzyme appears to involve the chemical modification of one residue on the enzyme and the pseudofirst order rate constant kobs divided by the concentration of the inhibitor (I) can be used as a measure of the inhibitory activity of the compounds (equation 3).
Human leucocyte elastase from human sputum was purchased from elastin corporation. Hepes, 4-(2-hydroxyethyl)-1-piperazineethanesulfonic acid, was purchased from Aldrich Chemical Co. (Milwaukee, Wis.). Substrate N-Methoxysuccinyl-L-Ala-L-Ala-L-Pro-L-Val-p-nitroanilide was purchased from Sigma Chemicals. Absorbance was measured with a VARIAN CARY-2200 spectrophotometer at 410 nm.
5 μl of acetate buffer (0.05M Sodium Acetate adjusted with 6N HCl to ph=5.5) is added to the reference cuvette, and the cuvette is shaken for 15 seconds to mix the solution. 5 μl of HLE 3.7×10^-5 M in acetate buffer is added to the sample cuvette and the cuvette is shaken for 15 seconds. Both cuvettes were placed in the jacketed cuvette holders of the spectrophotometer and incubated at 25° C. for a fixed time interval up to 2 hours (Incubation periods of 3, 4, 5, 7, 10, 15, 20, 30, 45, 60, 90 and 120 minutes were used).
Shortly before the incubation period ends, the cuvettes are balanced at 410 nm. […] The cuvettes are shaken for 15 seconds and the absorbance is recorded at 410 nm at 1 min, 2 min and 3 min after addition of substrate. A control in which 50 μl of dimethyl sulfoxide used to dissolve the inhibitor is added in its place, is done in the same manner as above for each incubation period.
Absorbance of sample is the absolute remaining activity of HLE (A), and absorbance of control is the total activity of HLE (Ao).
% Relative Remaining Activity=(A/Ao)×100
The % relative remaining activity of the HLE for each inhibitor is plotted against the time of incubation and from the slope of the semilog plot the kobs is determined.
The equation that describes this model is:
A/Ao=(1-F)e^-Kobst +F (equation 1)
Rearranging results in a linear relationship
Ln ((A/Ao)-F/1-F)=-kobs t (equation 2)
A semilog plot results in a straight line with slope=kobs, the pseudofirst order rate constant ksec =kobs /I (equation 3)
The ksec is the second order independent rate constant that is used to compare the inhibitory activity of the compounds against HLE.

Series [2] is described as follows: Stability in excess of methanol with normal phase HLPC/HPLC. In kind it is physicochemical. The method, then:
The flow was maintained at 1 ml/min, and a KRATOS variable UVdetector at 265 nm was used. Two separate experiments were conducted under the above conditions in which the stability of (1E) was [drawing 16] monitored in excess of methanol.
The above two experiments indicate that (1E) is consumed at the same rate as the thiol tetrazole (D) is produced. The thiol tetrazole (D) is exclusively produced from the degradation of the thiocarbamate with methanol. In other words (1E) reacts with methanol to give thiol tetrazole (D) and most probably N-n-butyl, methylcarbamate which cannot be detected under the above conditions.

Setting [3] is: inactivation followed for 2 hours.

For orientation: half-life means how long it takes for the measured level to halve.

For the compound `CCCCN` [Compound 1A, n-butylamine], in series [1], the “inhibition of HLE” value is “None of the corresponding amines (1A, 2A, 3A, 4A, 5A and 6A) nor 1-phenyl-1H-tetrazole-5-thiol (D) inhibited HLE”.
`CCCCNC(=O)Sc1nnnn1-c1ccccc1` [Compound 1E, N-butyl, 1-phenyl-1H-tetrazole-5-thiocarbamate]: the “times more potent than PC1” value in series [1] stood at 10 times. Moreover, in series [1] (setting [3]), the kinact/KI was found to be 210000 M⁻¹ s⁻¹. The “stability” value in series [2] is given as “fairly stable”. Further, in series [2] (calculated from the pseudofirst order rate constants), the half-life was 17 days.
With `C=CCN` [Compound 2A], in series [1], the “inhibition of HLE” value was “None of the corresponding amines (1A, 2A, 3A, 4A, 5A and 6A) nor 1-phenyl-1H-tetrazole-5-thiol (D) inhibited HLE”.
Turning to `C=CCNC(=O)Sc1nnnn1-c1ccccc1` [Compound 2E, N-allyl, 1-phenyl-1H-tetrazole-5-thiocarbamate], the “times more potent than PC1” value in series [1] is recorded as 2 times. In addition, in series [1] (setting [3]), the kinact/KI was found to be 61000 M⁻¹ s⁻¹.
For `CC(C)N` [Compound 3A, isopropyl amine], the “inhibition of HLE” value in series [1] was “None of the corresponding amines (1A, 2A, 3A, 4A, 5A and 6A) nor 1-phenyl-1H-tetrazole-5-thiol (D) inhibited HLE”.
On to `CC(C)NC(=O)Sc1nnnn1-c1ccccc1` [Compound 3E, N-isopropyl, 1-phenyl-1H-tetrazole-5-thiocarbamate], for which the “times more active than 4E” value in series [1] (compared with (4E), kobs/I) is 10 times. In series [1] (setting [3]), the kinact/KI stood at 3300 M⁻¹ s⁻¹.
Take `Nc1ccccc1` [Compound 4A]: the “inhibition of HLE” value in series [1] is “None of the corresponding amines (1A, 2A, 3A, 4A, 5A and 6A) nor 1-phenyl-1H-tetrazole-5-thiol (D) inhibited HLE”.
For `O=C(Nc1ccccc1)Sc1nnnn1-c1ccccc1` [Compound 4E, N-phenyl, 1-phenyl-1H-tetrazole-5-thiocarbamate], the kinact/KI in series [1] (setting [3]) came to 190 M⁻¹ s⁻¹.
Consider `CCCCNCC` [Compound 5A, ethyl, butylamine], for which, in series [1], the “inhibition of HLE” value is “None of the corresponding amines (1A, 2A, 3A, 4A, 5A and 6A) nor 1-phenyl-1H-tetrazole-5-thiol (D) inhibited HLE”.
`CCCCN(CC)C(=O)Sc1nnnn1-c1ccccc1` [Compound 5E, N-ethyl-N-butyl, 1-phenyl-1H-tetrazole-5-thiocarbamate]: in series [1] (setting [3]), the kinact/KI was found to be 180 M⁻¹ s⁻¹.
Turning to `CC(C)NC(C)C` [Compound 6A], the “inhibition of HLE” value in series [1] was “None of the corresponding amines (1A, 2A, 3A, 4A, 5A and 6A) nor 1-phenyl-1H-tetrazole-5-thiol (D) inhibited HLE”.
Regarding `CC(C)N(C(=O)Sc1nnnn1-c1ccccc1)C(C)C` [Compound 6E, N, N-diisopropyl, 1-phenyl-1H-tetrazole-5-thiocarbamate], the “inhibition of HLE” value in series [1] was “no inhibitory activity”. Also, the “kobs/I (class symbol)” value in series [1] (setting [3]) is “N.I”.
As to `Sc1nnnn1-c1ccccc1` [D, 1-phenyl-1H-tetrazole-5-thiol], in series [1], the “inhibition of HLE” value was “None of the corresponding amines (1A, 2A, 3A, 4A, 5A and 6A) nor 1-phenyl-1H-tetrazole-5-thiol (D) inhibited HLE”.
